In patent US9512176B2, “Age inhibitors” (Centre National de la Recherche Scientifique, priority 2005, dated 2016):
Non-standard residues stand in square brackets, D forms with d. Residues, ends and D or L forms follow the SMILES beside them. Dap = NC[C@H](N)C(=O)O

Legend:
EA.hy 926 cell line = test: Growth of EA.hy 926 endothelial cells with MG scavengers and/or methylglyoxal (MTT); format: cell-based, human
Procedure: The cells used for the test are from the EA.hy 926 cell line, which are endothelial cells obtained by the hybridization of human umbilical vein endothelial cells (HUVECs) with lung cancer cells (A549). The EA.hy 926 endothelial cells are incubated in Dulbecco's modified Eagle's Medium (DMEM) enriched with 10% fetal calf serum. The cells are incubated in 12-well plates. Each well initially contains 100,000 cells. Cell growth is achieved by incubating the cells in 2 ml of culture medium after adding or not adding the various potential inhibitors (1 mM) and/or methylglyoxal (600 μM) for 48 hours at 37° C. in a moist atmosphere with 5% CO2.
The number of cells is evaluated in the following way:
The cells are stained using the (4,5-dimethylthiazol-2-yl)-2,5-diphenyltetrazolium bromide (MTT) assay. MTT penetrates in the cell where it is converted into formazan. The quantity of formazan formed is proportional to the number of living cells.
The results are expressed as a relative percentage of the number of cells after treatment compared to the number of control cells without treatment [100*OD (treated cells)/OD (control cells)]. Detection is carried out by UV/visible spectrophotometry at 570 nm.
Principle: MTT (yellow) penetrates the cell and is converted into an insoluble blue compound, formazan, by cleavage of its tetrazolium rings by the mitochondrial dehydrogenase enzymes of living cells. Formazan is solubilized by isopropanol. The number of cells is proportional to the quantity of formazan formed and its absorbance.

[1] = test system: seven strains of Salmonella (six mixed strains, strain TA98); test: Ames test with and without human liver S9 fractions; format: cell-based; parameters: key to Six mixed strains / Strain TA98: −: non-mutagenic; +: mutagenic; details: for Six mixed strains / Strain TA98: mixture with methylglyoxal, 10/1/0.1 μM
Procedure: An Ames test was performed with L-DAPA-L-Leu (example 1) and L-DAPA-L-Val (example 23) alone and in combination with methylglyoxal on human liver S9 fractions and on seven strains of Salmonella.
The concentrations used in the Ames test were as follows: • L-DAPA-L-Leu alone or L-DAPA-L-Val alone: 10 μM, 1 μM and 0.1 μM. • L-DAPA-L-Leu/methylglyoxal mixture or L-DAPA-L-Val/methylglyoxal mixture: 10 μM, 1 μM and 0.1 μM. • Methylglyoxal: 10 μM.

ribonuclease A = test: SDS PAGE electrophoresis of ribonuclease A incubated with methylglyoxal and inhibitor; format: biochemical; details: ribonuclease A 10 mg/ml, methylglyoxal 10 mM, inhibitor equimolar, 37° C., 48 hours
Procedure: Ribonuclease A and lysozyme (10 mg/ml) are incubated in the presence of methylglyoxal (10 mM) or in the presence of methylglyoxal and one of the inhibitors according to the present invention in an equimolar quantity at 37° C. After 48 hours of incubation, the proteins are analyzed by polyacrylamide gel electrophoresis (8%-16% SDS PAGE gel).
The AGE inhibitors according to the present invention, namely L-DAPA-L-Leu (example 1) and L-DAPA-L-Ile (example 18), or AG (10 mM) are incubated with MG and ribonuclease A for […] at 37° C.

For `CC(C)C[C@H](NC(=O)[C@@H](N)CN)C(=O)O` [example 1, L-DAPA-L-Leu.2HCl] (H-[Dap]-Leu-OH), the “cell survival when incubated with MG” value (EA.hy 926 cell line) was 81%, the viability at 1000 µM (EA.hy 926 cell line; Homo sapiens, EA.hy 926, scavenger 1 mM + methylglyoxal 600 μM, 48 hours, relative to untreated control cells, MG alone 24, mean of 3 experiments, read-out: Cells + MG scavengers + Methylglyoxal (B)) was 81% and the “Difference (B) − (A)” value (EA.hy 926 cell line; Table 2, cells with scavenger + MG minus cells with scavenger alone) was −13. For the same compound, the “Cells + MG scavengers (A)” value (EA.hy 926 cell line; scavenger 1 mM, no methylglyoxal, 48 hours, number of cells relative to untreated control cells, mean of 3 experiments) was 94%, the “effect against suppression of cell growth by MG” value (EA.hy 926 cell line; scavenger + methylglyoxal) was “same trend” and the “difference between number of cells growing with compound and with MG and compound” value (EA.hy 926 cell line; values in brackets) was −13. The Six mixed strains ([1]; Human S9: No) was “−”, the “Strain TA98” value ([1]; Human S9: No) was “−” and the Six mixed strains ([1]; Human S9: Yes (metabolites)) was “−”. For the same compound, the “Strain TA98” value ([1]; Human S9: Yes (metabolites)) was “−”, the “mutagenicity” value ([1]; alone or in combination with methylglyoxal, TA98, mixed strains, human liver S9 fractions) was “neither substance (L-DAPA-L-Leu or L-DAPA-L-Val) was mutagenic” and the “protection from structural modifications (dimer form) caused by methylglyoxal” value (ribonuclease A) was “provides protection”.
